{"source": "patent US20090264387A1", "about": "“ESTRA-1,3,5(10)-TRIENE DERIVATIVES FOR CONTRACEPTION” (GRUNENTHAL GMBH, priority 2008, published 2009)", "target": "T1, recombinant human progestin receptor (Homo sapiens, UniProt P06401)", "T1 sequence (P06401 1-933)": "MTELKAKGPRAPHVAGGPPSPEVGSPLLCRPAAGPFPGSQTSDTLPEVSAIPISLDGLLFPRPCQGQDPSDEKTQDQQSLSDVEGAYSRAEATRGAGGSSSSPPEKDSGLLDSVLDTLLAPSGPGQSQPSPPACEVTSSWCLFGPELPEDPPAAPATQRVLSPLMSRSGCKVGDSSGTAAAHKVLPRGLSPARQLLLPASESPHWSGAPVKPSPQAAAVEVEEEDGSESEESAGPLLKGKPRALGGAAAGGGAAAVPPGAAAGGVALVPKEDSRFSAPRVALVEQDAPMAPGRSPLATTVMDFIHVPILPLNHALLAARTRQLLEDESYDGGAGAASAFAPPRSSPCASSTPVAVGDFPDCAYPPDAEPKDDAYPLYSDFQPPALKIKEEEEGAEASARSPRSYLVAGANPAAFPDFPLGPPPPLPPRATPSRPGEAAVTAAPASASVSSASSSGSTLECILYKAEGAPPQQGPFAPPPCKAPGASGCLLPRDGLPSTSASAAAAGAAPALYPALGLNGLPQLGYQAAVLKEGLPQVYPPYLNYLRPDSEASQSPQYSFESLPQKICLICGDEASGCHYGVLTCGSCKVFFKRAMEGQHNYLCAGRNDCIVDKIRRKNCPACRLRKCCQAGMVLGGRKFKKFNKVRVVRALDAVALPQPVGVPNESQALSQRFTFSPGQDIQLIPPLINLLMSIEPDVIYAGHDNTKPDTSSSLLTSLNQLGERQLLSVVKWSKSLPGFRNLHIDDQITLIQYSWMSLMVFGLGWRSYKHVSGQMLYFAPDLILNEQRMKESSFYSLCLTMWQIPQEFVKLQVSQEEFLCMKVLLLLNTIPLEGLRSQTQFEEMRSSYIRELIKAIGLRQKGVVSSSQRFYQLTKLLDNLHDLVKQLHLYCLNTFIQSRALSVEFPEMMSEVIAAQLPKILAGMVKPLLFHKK", "assay": "Relative binding affinity to recombinant human progestin receptor", "source_text": "Methods of determining affinity to the aforementioned receptors are known to the person skilled in the art. In this context, reference can be made, for example, to EP-A 808 845; Lacroix et al., Bioorganic & Medicinal Chemistry 1999 (7) 2329-2341; and D. Philibert et al., Gynecol Endocrinol 1999, 13, 316-26.\nThe relative binding affinities of (2S,17S)-17-(2-hydroxypropanoyl)-3-hydroxy-17-methyl-estra-1,3,5(10),9(11)-tetraene [compound of the general formula (IV)] to the recombinant human progestin receptor, mineral corticoid receptor, androgen receptor, glucocorticoid receptor and oestrogen receptor were determined experimentally (cf. D. Philibert et al., Gynecol Endocrinol 1999, 13, 316-26)."}
{"smiles": "C[C@H](O)C(=O)[C@@]1(C)CC[C@H]2[C@@H]3CCc4cc(O)ccc4C3=CC[C@@]21C", "note": "[(2S,17S)-17-(2-hydroxypropanoyl)-3-hydroxy-17-methylestra-1,3,5(10),9(11)-tetraene]", "values": [{"measurement": "affinity to the progestin receptor (relative binding affinity)", "setting": "recombinant human receptor, progesterone reference standard", "result": "clear affinity"}, {"measurement": "selectivity for the progestin receptor", "setting": "versus other steroid receptors (mineral corticoid, androgen, glucocorticoid, oestrogen), quotient of relative binding affinities", "result": "high selectivity"}]}
